# Measured values as given in paper PMC11241330, “Development of a Radiolabeled Cyclin-Dependent Kinases 4 and 6 (CDK4/6) Inhibitor for Brain and Cancer PET Imaging” (International Journal of Molecular Sciences, 2024).
# How the values were obtained:
# CDK6 = molecular target: T1, CDK6 (Homo sapiens, UniProt Q00534); assay: luminescence kinase activity assay (BPS Bioscience CDK6/CyclinD3 kit #[…]); type: biochemical
# T1 construct: purified recombinant CDK6/CyclinD3; with CyclinD3
# CDK4 = molecular target: T2, CDK4 (Homo sapiens, UniProt P11802); assay: luminescence kinase activity assay (BPS Bioscience CDK4/CyclinD3 kit #[…]); type: biochemical
# T2 construct: purified recombinant CDK4/CyclinD3; with CyclinD3
# T2 sequence (P11802 2-303): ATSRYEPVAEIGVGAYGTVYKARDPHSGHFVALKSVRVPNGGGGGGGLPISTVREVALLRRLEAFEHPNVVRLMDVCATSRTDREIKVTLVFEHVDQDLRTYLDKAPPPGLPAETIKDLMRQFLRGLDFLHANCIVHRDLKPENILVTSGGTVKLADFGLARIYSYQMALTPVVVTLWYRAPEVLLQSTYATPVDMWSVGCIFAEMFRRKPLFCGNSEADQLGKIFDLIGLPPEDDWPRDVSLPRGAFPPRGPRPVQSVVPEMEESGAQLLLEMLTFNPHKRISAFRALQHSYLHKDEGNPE
# T2 sequence (P30281 whole entry partner): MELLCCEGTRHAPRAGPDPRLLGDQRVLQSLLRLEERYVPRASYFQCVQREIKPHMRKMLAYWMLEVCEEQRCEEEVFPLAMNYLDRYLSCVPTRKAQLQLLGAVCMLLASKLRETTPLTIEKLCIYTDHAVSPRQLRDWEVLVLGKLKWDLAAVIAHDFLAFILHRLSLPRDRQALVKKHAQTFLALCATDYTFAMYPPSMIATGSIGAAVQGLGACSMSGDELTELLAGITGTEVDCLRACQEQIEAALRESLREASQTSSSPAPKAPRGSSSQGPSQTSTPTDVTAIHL
# T1 sequence (Q00534 whole entry): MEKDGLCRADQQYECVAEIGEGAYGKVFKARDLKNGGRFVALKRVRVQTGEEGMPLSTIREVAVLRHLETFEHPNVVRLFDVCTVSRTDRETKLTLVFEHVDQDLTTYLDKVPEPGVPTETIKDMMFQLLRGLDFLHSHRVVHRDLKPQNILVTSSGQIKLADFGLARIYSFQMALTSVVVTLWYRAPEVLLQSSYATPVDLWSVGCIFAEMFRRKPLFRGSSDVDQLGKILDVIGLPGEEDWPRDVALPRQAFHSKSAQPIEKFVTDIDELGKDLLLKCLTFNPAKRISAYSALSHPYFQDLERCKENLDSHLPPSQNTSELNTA
# T1 sequence (P30281 whole entry partner): as the sequence (P30281 whole entry partner) above
compound,measurement,setting,value
"CC(C)n1cnc2c(F)cc(-c3nc(Nc4ccc(CN5CCN(Cc6ccc(F)cc6)CC5)cn4)ncc3F)cc21 [NT431, 5-fluoro-4-(4-fluoro-1-isopropyl-1H-benzo[d]imidazol-6-yl)-N-(5-((4-(4-fluorobenzyl)piperazin-1-yl)methyl)pyridin-2-yl)pyrimidin-2-amine]",IC50,CDK6,47.1 nM
same,IC50,CDK4,23.7 nM
